# From article PMC7586935 (Journal of Clinical Pharmacology, 2020)
# Counter-ions that a name gives are not always drawn. Like-named read-outs stand apart in the source and are kept apart here.
# Assays:
# [1] = Plasma pharmacokinetics after single oral dose; assay type: in vivo; settings: human; for AUC / Tmax: oral; for Cmax: po
# [2] = test system: HR, PR, and QRS of healthy volunteers; assay: PK-PD analysis of other ECG parameters; assay type: in vivo, human
# [3] = test system: QTcF interval of healthy volunteers; assay: Time-matched analysis of placebo-adjusted change from baseline QTcF; assay type: in vivo, human
# [4] = test system: healthy volunteers; assay: ECG outlier analyses; assay type: in vivo, human
# [5] = test system: healthy volunteers; assay: ECG morphological analyses; assay type: in vivo, human
# [6] = test system: healthy volunteers; assay: Safety assessment: treatment-emergent adverse events; assay type: in vivo, human
# [7] = mean ± SE, cited from earlier work
# [8] = test system: human ether‐a‐go‐go–related gene potassium channels; settings: in vitro, at clinically relevant plasma concentrations; cited from earlier work
# [9] = test system: CYP3A4; settings: cited from earlier work
# [10] = test system: QT/QTc interval of healthy volunteers; assay: Concentration-QTc
# [11] = 50 mg trazodone HCl with ritonavir (4 doses of 200 mg)
# [12] = 50 mg trazodone HCl, control condition
structure (smiles),measurement,setting,value
"O=c1n(CCCN2CCN(c3cccc(Cl)c3)CC2)nc2ccccn12 [Trazodone, Trazodone hydrochloride]",AUC,[1]; 20 mg,2150 ± 909 ng·h/mL
same,Tmax,[1]; 20 mg,30 min
same,AUC,[1]; 60 mg,6240 ± 2030 ng·h/mL
same,Tmax,[1]; 60 mg,30 min
same,AUC,[1]; 140 mg,12800 ± 4910 ng·h/mL
same,Tmax,[1]; 140 mg,18 min
same,Cmax,[1]; 20 mg,413 ± 79.1 ng/mL
same,Cmax,[1]; 60 mg,1270 ± 598 ng/mL
same,Cmax,[1]; 140 mg,2080 ± 600 ng/mL
same,Slope of HR change from baseline vs trazodone plasma concentration,[2]; SE 0.8013,2.199
same,Slope of PR change from baseline vs trazodone plasma concentration,[2]; in vivo,–3.6040
same,Slope of QRS change from baseline vs trazodone plasma concentration,[2]; in vivo,0.0445
same,Predicted placebo-adjusted and baseline-corrected HR at mean Cmax,[2]; trazodone 20 mg,1.45 bpm
same,Predicted placebo-adjusted and baseline-corrected HR at mean Cmax,[2]; trazodone 60 mg,2.12 bpm
same,Predicted placebo-adjusted and baseline-corrected HR at mean Cmax,[2]; trazodone 140 mg,2.76 bpm
same,Predicted placebo-adjusted and baseline-corrected PR at predicted Cmax,[2]; trazodone 140 mg,–7.4 ms
same,Predicted placebo-adjusted and baseline-corrected QRS at predicted Cmax,[2]; trazodone 140 mg,0.115 ms
same,"Placebo-adjusted change from baseline QTcF, estimate (90%CI)","[3]; trazodone 20 mg, N = 16, 5 min postdose",–3.3 (–7.8 to 1.1) ms
same,"Placebo-adjusted change from baseline QTcF, estimate (90%CI)","[3]; trazodone 20 mg, N = 16, 10 min postdose",–1.2 (–6.2 to 3.8) ms
same,"Placebo-adjusted change from baseline QTcF, estimate (90%CI)","[3]; trazodone 20 mg, N = 16, 20 min postdose",–0.2 (–5.4 to 5.0) ms
same,"Placebo-adjusted change from baseline QTcF, estimate (90%CI)","[3]; trazodone 20 mg, N = 16, 0.5 h postdose",2.1 (–0.3 to 4.6) ms
same,"Placebo-adjusted change from baseline QTcF, estimate (90%CI)","[3]; trazodone 20 mg, N = 16, 1 h postdose",6.6 (1.5–11.7) ms
same,"Placebo-adjusted change from baseline QTcF, estimate (90%CI)","[3]; trazodone 20 mg, N = 16, 2 h postdose",3.5 (0.5–6.5) ms
same,"Placebo-adjusted change from baseline QTcF, estimate (90%CI)","[3]; trazodone 20 mg, N = 16, 3 h postdose",1.7 (–2.7 to 6.1) ms
same,"Placebo-adjusted change from baseline QTcF, estimate (90%CI)","[3]; trazodone 20 mg, N = 16, 4 h postdose",3.2 (–2.3 to 8.6) ms
same,"Placebo-adjusted change from baseline QTcF, estimate (90%CI)","[3]; trazodone 20 mg, N = 16, 6 h postdose",–0.2 (–4.8 to 4.3) ms
same,"Placebo-adjusted change from baseline QTcF, estimate (90%CI)","[3]; trazodone 20 mg, N = 16, 8 h postdose",1.2 (–2.3 to 4.6) ms
same,"Placebo-adjusted change from baseline QTcF, estimate (90%CI)","[3]; trazodone 20 mg, N = 16, 12 h postdose",0.6 (–4.7 to 5.8) ms
same,"Placebo-adjusted change from baseline QTcF, estimate (90%CI)","[3]; trazodone 20 mg, N = 16, 16 h postdose",–3.3 (–6.9 to 0.3) ms
same,"Placebo-adjusted change from baseline QTcF, estimate (90%CI)","[3]; trazodone 20 mg, N = 16, 24 h postdose",1.8 (–3.5 to 7.1) ms
same,"Placebo-adjusted change from baseline QTcF, estimate (90%CI)","[3]; trazodone 60 mg, N = 16, 5 min postdose",–2.3 (–6.7 to 2.1) ms
same,"Placebo-adjusted change from baseline QTcF, estimate (90%CI)","[3]; trazodone 60 mg, N = 16, 10 min postdose",0.3 (–4.1 to 4.6) ms
same,"Placebo-adjusted change from baseline QTcF, estimate (90%CI)","[3]; trazodone 60 mg, N = 16, 20 min postdose",4.8 (–0.4 to 10.0) ms
same,"Placebo-adjusted change from baseline QTcF, estimate (90%CI)","[3]; trazodone 60 mg, N = 16, 0.5 h postdose",11.9 (8.6–15.3) ms
same,"Placebo-adjusted change from baseline QTcF, estimate (90%CI)","[3]; trazodone 60 mg, N = 16, 2 h postdose",8.8 (4.2–13.4) ms
same,"Placebo-adjusted change from baseline QTcF, estimate (90%CI)","[3]; trazodone 60 mg, N = 16, 3 h postdose",6.1 (1.9–10.2) ms
same,"Placebo-adjusted change from baseline QTcF, estimate (90%CI)","[3]; trazodone 60 mg, N = 16, 4 h postdose",7.9 (4.3–11.5) ms
same,"Placebo-adjusted change from baseline QTcF, estimate (90%CI)","[3]; trazodone 60 mg, N = 16, 6 h postdose",2.2 (–1.8 to 6.2) ms
same,"Placebo-adjusted change from baseline QTcF, estimate (90%CI)","[3]; trazodone 60 mg, N = 16, 8 h postdose",–0.4 (–3.4 to 2.7) ms
same,"Placebo-adjusted change from baseline QTcF, estimate (90%CI)","[3]; trazodone 60 mg, N = 16, 12 h postdose",6.4 (1.7–11.0) ms
same,"Placebo-adjusted change from baseline QTcF, estimate (90%CI)","[3]; trazodone 60 mg, N = 16, 16 h postdose",–1.4 (–5.6 to 2.7) ms
same,"Placebo-adjusted change from baseline QTcF, estimate (90%CI)","[3]; trazodone 60 mg, N = 16, 24 h postdose",2.0 (–3.0 to 6.9) ms
same,"Placebo-adjusted change from baseline QTcF, estimate (90%CI)","[3]; trazodone 60 mg, N = 16, […] postdose",16.9 ms
same,Increase in the QTcF interval (time-matched analysis),"[3]; trazodone 60 mg, between 30 minutes and […] postdose",> 10 ms
same,"Placebo-adjusted change from baseline QTcF, estimate (90%CI)","[3]; trazodone 140 mg, N = 18, 5 min postdose",0.8 (–2.7 to 4.4) ms
same,"Placebo-adjusted change from baseline QTcF, estimate (90%CI)","[3]; trazodone 140 mg, N = 18, 10 min postdose",0.5 (–3.0 to 4.0) ms
same,"Placebo-adjusted change from baseline QTcF, estimate (90%CI)","[3]; trazodone 140 mg, N = 18, 20 min postdose",11.6 (7.8–15.5) ms
same,"Placebo-adjusted change from baseline QTcF, estimate (90%CI)","[3]; trazodone 140 mg, N = 18, 0.5 h postdose",20.2 (16.4–23.9) ms
same,"Placebo-adjusted change from baseline QTcF, estimate (90%CI)","[3]; trazodone 140 mg, N = 18, 1 h postdose",24.5 (20.3–28.7) ms
same,"Placebo-adjusted change from baseline QTcF, estimate (90%CI)","[3]; trazodone 140 mg, N = 18, 2 h postdose",17.1 (13.4–20.8) ms
same,"Placebo-adjusted change from baseline QTcF, estimate (90%CI)","[3]; trazodone 140 mg, N = 18, 3 h postdose",14.5 (7.6–21.5) ms
same,"Placebo-adjusted change from baseline QTcF, estimate (90%CI)","[3]; trazodone 140 mg, N = 18, 4 h postdose",12.8 (8.5–17.1) ms
same,"Placebo-adjusted change from baseline QTcF, estimate (90%CI)","[3]; trazodone 140 mg, N = 18, 6 h postdose",6.7 (2.3–11.2) ms
same,"Placebo-adjusted change from baseline QTcF, estimate (90%CI)","[3]; trazodone 140 mg, N = 18, 8 h postdose",5.8 (0.9–10.7) ms
same,"Placebo-adjusted change from baseline QTcF, estimate (90%CI)","[3]; trazodone 140 mg, N = 18, 12 h postdose",7.9 (4.3–11.6) ms
same,"Placebo-adjusted change from baseline QTcF, estimate (90%CI)","[3]; trazodone 140 mg, N = 18, 16 h postdose",–0.7 (–5.2 to 3.8) ms
same,"Placebo-adjusted change from baseline QTcF, estimate (90%CI)","[3]; trazodone 140 mg, N = 18, 24 h postdose",1.7 (–1.4 to 4.8) ms
same,Increase in the QTcF interval (time-matched analysis),"[3]; trazodone 140 mg, between 15 minutes and 4 hours postdose",> 10 ms
same,Heart rate: Bradycardic outliers,"[4]; trazodone 20 mg, n = 18",0 n (%)
same,Heart rate: Tachycardic outliers,"[4]; trazodone 20 mg, n = 18",0 n (%)
same,PR interval: Outliers,"[4]; trazodone 20 mg, n = 18",1 (6) n (%)
same,QRS interval: Outliers,"[4]; trazodone 20 mg, n = 18",0 n (%)
same,QTcF >30‐60 ms inc change from baseline,"[4]; trazodone 20 mg, n = 18",0 n (%)
same,QTcF >60 ms inc change from baseline,"[4]; trazodone 20 mg, n = 18",0 n (%)
same,QTcF New >480 ms,"[4]; trazodone 20 mg, n = 18",0 n (%)
same,QTcF New >500 ms,"[4]; trazodone 20 mg, n = 18",0 n (%)
same,Heart rate: Bradycardic outliers,"[4]; trazodone 60 mg, n = 18",0 n (%)
same,Heart rate: Tachycardic outliers,"[4]; trazodone 60 mg, n = 18",1 (6) n (%)
same,PR interval: Outliers,"[4]; trazodone 60 mg, n = 18",0 n (%)
same,QRS interval: Outliers,"[4]; trazodone 60 mg, n = 18",0 n (%)
same,QTcF >30‐60 ms inc change from baseline,"[4]; trazodone 60 mg, n = 18",1 (6) n (%)
same,QTcF >60 ms inc change from baseline,"[4]; trazodone 60 mg, n = 18",0 n (%)
same,QTcF New >480 ms,"[4]; trazodone 60 mg, n = 18",0 n (%)
same,QTcF New >500 ms,"[4]; trazodone 60 mg, n = 18",0 n (%)
same,Heart rate: Bradycardic outliers,"[4]; trazodone 140 mg, n = 20",1 (5) n (%)
same,Heart rate: Tachycardic outliers,"[4]; trazodone 140 mg, n = 20",2 (10) n (%)
same,PR interval: Outliers,"[4]; trazodone 140 mg, n = 20",1 (5) n (%)
same,QRS interval: Outliers,"[4]; trazodone 140 mg, n = 20",0 n (%)
same,QTcF >30‐60 ms inc change from baseline,"[4]; trazodone 140 mg, n = 20",6 (30) n (%)
same,QTcF >60 ms inc change from baseline,"[4]; trazodone 140 mg, n = 20",0 n (%)
same,QTcF New >480 ms,"[4]; trazodone 140 mg, n = 20",2 (10) n (%)
same,QTcF New >500 ms,"[4]; trazodone 140 mg, n = 20",0 n (%)
same,New ST‐segment depression changes,"[5]; trazodone 20 mg, n = 18",0 n (%)
same,New ST‐segment elevation changes,"[5]; trazodone 20 mg, n = 18",0 n (%)
same,New second‐degree heart block,"[5]; trazodone 20 mg, n = 18",0 n (%)
same,New third‐degree heart block,"[5]; trazodone 20 mg, n = 18",0 n (%)
same,New ST‐segment depression changes,"[5]; trazodone 60 mg, n = 18",1 (6) n (%)
same,New ST‐segment elevation changes,"[5]; trazodone 60 mg, n = 18",0 n (%)
same,New second‐degree heart block,"[5]; trazodone 60 mg, n = 18",0 n (%)
same,New third‐degree heart block,"[5]; trazodone 60 mg, n = 18",0 n (%)
same,New ST‐segment depression changes,"[5]; trazodone 140 mg, n = 20",0 n (%)
same,New ST‐segment elevation changes,"[5]; trazodone 140 mg, n = 20",0 n (%)
same,New second‐degree heart block,"[5]; trazodone 140 mg, n = 20",0 n (%)
same,New third‐degree heart block,"[5]; trazodone 140 mg, n = 20",0 n (%)
same,"Dizziness, frequency of subjects",[6]; trazodone 20 mg,0%
same,"Somnolence, frequency of subjects",[6]; trazodone 20 mg,44.4%
same,"Dizziness, frequency of subjects",[6]; trazodone 60 mg,5.6%
same,"Somnolence, frequency of subjects",[6]; trazodone 60 mg,50.0%
same,"Headache, frequency of subjects",[6]; trazodone 140 mg,10%
same,"Somnolence, frequency of subjects",[6]; trazodone 140 mg,85.0%
same,"Vomiting, frequency of subjects",[6]; trazodone 140 mg,10%
same,"Treatment-related ECG QT prolongation, frequency of subjects","[6]; trazodone 140 mg, 1 subject",5%
same,"Treatment-related abdominal discomfort, frequency of subjects","[6]; trazodone 140 mg, 1 subject",5%
same,"Treatment-related hypertension, frequency of subjects","[6]; trazodone 140 mg, 1 subject",5%
same,"Treatment-related hypotension, frequency of subjects","[6]; trazodone 140 mg, 1 subject",5%
same,"Treatment-related palpitations, frequency of subjects","[6]; trazodone 140 mg, 1 subject",5%
same,Elimination half-life,[7]; [11],894 ± 234 min
same,Peak plasma concentrations,[7]; [11],1125 ± 111 ng/mL
same,Elimination half-life,[7]; [12],402 ± 42 min
same,Peak plasma concentrations,[7]; [12],842 ± 64 ng/mL
same,Inhibition of hERG potassium channels,[8],potent dose‐dependent inhibition
same,Metabolic pathway,[9],primarily metabolized by CYP3A4
same,"Predicted Mean Effect at Mean Cmax (placebo-corrected change from baseline QTcF, ΔΔQTcF)","[10]; trazodone 60 mg, mean Cmax 1269.0 ng/mL",12.3 ms
same,"Predicted Mean Effect at Mean Cmax (placebo-corrected change from baseline QTcF, ΔΔQTcF)","[10]; trazodone 140 mg, mean Cmax 2083.5 ng/mL",19.8 ms
